According to patent US20250353864A1, “INDAZOLE CONTAINING MACROCYCLES AND THEIR USE” (BLOSSOMHILL THERAPEUTICS, INC., priority 2022, published 2025):

Experiments:
Type in all cases: biochemical
ALK = ALK (Homo sapiens (Human), UniProt Q9UM73); test: HotSpot radiometric kinase assay, inhibition of ALK kinase activity; settings: 10 μM ATP
Method: Briefly, specific kinase/substrate pairs along with required cofactors were prepared in reaction buffer; 20 mM Hepes pH 7.5, 10 mM […], 1 mM EGTA, 0.02% Brij35, 0.02 mg/ml BSA, 0.1 mM Na3VO4, 2 mM DTT, 1% DMSO. Compounds were delivered into the reaction, followed […] later by addition of a mixture of ATP (Sigma, St. Louis MO) and ^33P ATP (Perkin Elmer, Waltham MA) to a final concentration of 10 μM. Reactions were carried out at room temperature for 120 min, followed by spotting of the reactions onto P81 ion exchange filter paper (Whatman Inc., Piscataway, NJ). Unbound phosphate was removed by extensive washing of filters in 0.75% phosphoric acid. […] IC50 values and curve fits were obtained using Prism (GraphPad Software).

CLK1 = CLK1 (Homo sapiens (Human), UniProt P49759); test: Inhibition of CLK1 kinase activity evaluated at Nanosyn (ADP-Glo); settings: ADP-Glo luminescence
How it was run: (§1)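 Percent inhibition derived from luminescent ADP detection (ADP-Glo), normalised to DMSO-only and enzyme-free wells. Reactions ran in HEPES pH 7.5 buffer with Mg2+, Triton X-100 and BSA, 1% DMSO, ATP-initiated, for an assay-specific time.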

CLK2 = CLK2 (Homo sapiens (Human), UniProt P49760); test: Inhibition of CLK2 kinase activity evaluated at Nanosyn (ADP-Glo); settings: ADP-Glo luminescence
How it was run: as §1

CLK3 = CLK3 (Homo sapiens (Human), UniProt P49761); test: Inhibition of CLK3 kinase activity evaluated at Nanosyn (ADP-Glo); settings: ADP-Glo luminescence
How it was run: as §1

CLK4 = CLK4 (Homo sapiens (Human), UniProt Q9HAZ1); test: Inhibition of CLK4 kinase activity evaluated at Nanosyn (ADP-Glo); settings: ADP-Glo luminescence
How it was run: as §1

EGFR WT = EGFR WT (Homo sapiens (Human), UniProt P00533); test: HotSpot radiometric kinase assay (Reaction Biology), EGFR WT; settings: 10 μM ATP
How it was run: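 IC50 values come from curve fits of ^33P incorporation captured on P81 filters after acid washing. Kinase reactions ran 120 min at room temperature with 10 μM ATP, added about 20 min after compound. Buffer was Hepes pH 7.5 containing Mg, DTT and 1% DMSO.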

EGFR (D770_N771insNPG) = EGFR (D770_N771insNPG) (Homo sapiens (Human), UniProt P00533, INS770NPG); test: HotSpot radiometric kinase assay, EGFR (D770_N771insNPG); settings: 10 μM ATP, read-out: EGFR (Δ770_N771insNPG) IC50
How it was run: (§2)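 Radiometric filter-binding assay with EGFR mutant kinase/substrate pairs in 20 mM Hepes pH 7.5 with Mg, EGTA, Brij35, BSA, Na3VO4, DTT, 1% DMSO. Compound preincubated ~20 min, then ATP/^33P-ATP added at 10 μM final. Reaction 120 min at room temperature, spotted on P81 paper; IC50 from curve fits.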

EGFR Δ746-750 mutant = EGFR Δ746-750 mutant (Homo sapiens (Human), UniProt P00533, DEL746-750); test: HotSpot radiometric kinase assay, EGFR Δ746-750 mutant; settings: 10 μM ATP
How it was run: as §2

[1] = molecular target: EGFR Δ746-750/C797S mutant (Homo sapiens (Human), UniProt P00533, C797S/DEL746-750); test: HotSpot radiometric kinase assay, EGFR Δ746-750/C797S mutant; settings: 10 μM ATP
How it was run: as §2

EGFR L858R mutant = EGFR L858R mutant (Homo sapiens (Human), UniProt P00533, L858R); test: HotSpot radiometric kinase assay, EGFR L858R mutant; settings: 10 μM ATP
How it was run: as §2

[2] = molecular target: EGFR L858R/T790M/C797S mutant (Homo sapiens (Human), UniProt P00533, C797S/L858R/T790M); test: HotSpot radiometric kinase assay, EGFR L858R/T790M/C797S mutant; settings: 10 μM ATP
How it was run: as §2

EGFR L858R/T790M mutant = EGFR L858R/T790M mutant (Homo sapiens (Human), UniProt P00533, L858R/T790M); test: HotSpot radiometric kinase assay, EGFR L858R/T790M mutant; settings: 10 μM ATP
How it was run: as §2

EGFR L858R/T790M/C797S mutant, sequence (P00533 25-1210 T790M/C797S/L858R): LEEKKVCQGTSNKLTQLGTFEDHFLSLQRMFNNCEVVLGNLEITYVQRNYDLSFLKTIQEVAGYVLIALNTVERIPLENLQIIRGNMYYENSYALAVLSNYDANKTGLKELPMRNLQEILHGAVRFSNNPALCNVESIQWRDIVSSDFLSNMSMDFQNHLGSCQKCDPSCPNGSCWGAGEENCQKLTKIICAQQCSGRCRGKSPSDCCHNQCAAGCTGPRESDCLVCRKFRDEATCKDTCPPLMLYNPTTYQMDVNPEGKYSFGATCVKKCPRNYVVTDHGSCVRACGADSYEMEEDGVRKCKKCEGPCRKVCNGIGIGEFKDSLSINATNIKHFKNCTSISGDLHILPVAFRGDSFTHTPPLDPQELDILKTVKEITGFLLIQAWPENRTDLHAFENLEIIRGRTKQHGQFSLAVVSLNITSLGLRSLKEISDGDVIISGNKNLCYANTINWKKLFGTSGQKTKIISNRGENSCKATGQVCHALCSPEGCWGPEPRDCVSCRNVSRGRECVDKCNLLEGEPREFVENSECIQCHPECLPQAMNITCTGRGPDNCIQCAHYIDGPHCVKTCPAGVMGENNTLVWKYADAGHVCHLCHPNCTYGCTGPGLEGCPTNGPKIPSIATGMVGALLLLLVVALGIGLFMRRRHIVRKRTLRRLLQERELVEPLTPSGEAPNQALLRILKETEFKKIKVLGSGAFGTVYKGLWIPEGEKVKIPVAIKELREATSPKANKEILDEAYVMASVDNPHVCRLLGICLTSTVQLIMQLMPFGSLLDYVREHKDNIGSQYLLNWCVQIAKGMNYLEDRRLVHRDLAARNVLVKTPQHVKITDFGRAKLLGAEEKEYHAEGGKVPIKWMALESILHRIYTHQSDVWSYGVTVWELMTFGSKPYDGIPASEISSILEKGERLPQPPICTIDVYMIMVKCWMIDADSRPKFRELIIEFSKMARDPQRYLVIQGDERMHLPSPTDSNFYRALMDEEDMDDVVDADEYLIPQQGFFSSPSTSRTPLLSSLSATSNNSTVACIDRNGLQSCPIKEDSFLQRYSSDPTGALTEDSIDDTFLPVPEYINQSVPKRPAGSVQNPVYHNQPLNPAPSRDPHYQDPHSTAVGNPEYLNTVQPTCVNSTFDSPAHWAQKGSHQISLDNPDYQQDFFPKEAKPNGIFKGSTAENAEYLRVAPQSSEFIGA
CLK2, sequence (P49760 whole entry): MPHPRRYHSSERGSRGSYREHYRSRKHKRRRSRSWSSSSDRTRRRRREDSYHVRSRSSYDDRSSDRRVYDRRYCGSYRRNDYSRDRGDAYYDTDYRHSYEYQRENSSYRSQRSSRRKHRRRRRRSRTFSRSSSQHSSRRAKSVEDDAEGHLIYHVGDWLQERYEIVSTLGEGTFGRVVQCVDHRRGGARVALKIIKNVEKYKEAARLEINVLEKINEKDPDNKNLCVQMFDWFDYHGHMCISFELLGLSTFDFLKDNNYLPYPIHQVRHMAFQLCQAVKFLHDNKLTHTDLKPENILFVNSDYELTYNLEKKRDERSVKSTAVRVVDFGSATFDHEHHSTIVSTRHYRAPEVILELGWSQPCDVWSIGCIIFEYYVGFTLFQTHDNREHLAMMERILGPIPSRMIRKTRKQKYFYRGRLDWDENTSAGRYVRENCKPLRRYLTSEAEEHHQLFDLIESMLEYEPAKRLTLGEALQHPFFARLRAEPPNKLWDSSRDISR
CLK4, sequence (Q9HAZ1 whole entry): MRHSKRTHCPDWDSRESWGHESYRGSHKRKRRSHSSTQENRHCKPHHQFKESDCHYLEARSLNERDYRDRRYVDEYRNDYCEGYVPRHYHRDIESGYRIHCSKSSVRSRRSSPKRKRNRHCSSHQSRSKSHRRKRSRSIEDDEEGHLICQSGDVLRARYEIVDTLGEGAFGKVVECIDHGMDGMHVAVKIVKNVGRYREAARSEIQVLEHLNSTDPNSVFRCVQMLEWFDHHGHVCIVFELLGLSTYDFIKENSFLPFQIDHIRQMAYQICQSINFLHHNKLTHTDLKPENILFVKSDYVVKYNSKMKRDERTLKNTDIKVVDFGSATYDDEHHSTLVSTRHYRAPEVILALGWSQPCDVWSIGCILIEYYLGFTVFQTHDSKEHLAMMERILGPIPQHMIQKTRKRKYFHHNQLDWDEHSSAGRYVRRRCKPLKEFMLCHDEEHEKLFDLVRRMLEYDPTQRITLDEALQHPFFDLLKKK
EGFR L858R mutant, sequence (P00533 25-1210 L858R): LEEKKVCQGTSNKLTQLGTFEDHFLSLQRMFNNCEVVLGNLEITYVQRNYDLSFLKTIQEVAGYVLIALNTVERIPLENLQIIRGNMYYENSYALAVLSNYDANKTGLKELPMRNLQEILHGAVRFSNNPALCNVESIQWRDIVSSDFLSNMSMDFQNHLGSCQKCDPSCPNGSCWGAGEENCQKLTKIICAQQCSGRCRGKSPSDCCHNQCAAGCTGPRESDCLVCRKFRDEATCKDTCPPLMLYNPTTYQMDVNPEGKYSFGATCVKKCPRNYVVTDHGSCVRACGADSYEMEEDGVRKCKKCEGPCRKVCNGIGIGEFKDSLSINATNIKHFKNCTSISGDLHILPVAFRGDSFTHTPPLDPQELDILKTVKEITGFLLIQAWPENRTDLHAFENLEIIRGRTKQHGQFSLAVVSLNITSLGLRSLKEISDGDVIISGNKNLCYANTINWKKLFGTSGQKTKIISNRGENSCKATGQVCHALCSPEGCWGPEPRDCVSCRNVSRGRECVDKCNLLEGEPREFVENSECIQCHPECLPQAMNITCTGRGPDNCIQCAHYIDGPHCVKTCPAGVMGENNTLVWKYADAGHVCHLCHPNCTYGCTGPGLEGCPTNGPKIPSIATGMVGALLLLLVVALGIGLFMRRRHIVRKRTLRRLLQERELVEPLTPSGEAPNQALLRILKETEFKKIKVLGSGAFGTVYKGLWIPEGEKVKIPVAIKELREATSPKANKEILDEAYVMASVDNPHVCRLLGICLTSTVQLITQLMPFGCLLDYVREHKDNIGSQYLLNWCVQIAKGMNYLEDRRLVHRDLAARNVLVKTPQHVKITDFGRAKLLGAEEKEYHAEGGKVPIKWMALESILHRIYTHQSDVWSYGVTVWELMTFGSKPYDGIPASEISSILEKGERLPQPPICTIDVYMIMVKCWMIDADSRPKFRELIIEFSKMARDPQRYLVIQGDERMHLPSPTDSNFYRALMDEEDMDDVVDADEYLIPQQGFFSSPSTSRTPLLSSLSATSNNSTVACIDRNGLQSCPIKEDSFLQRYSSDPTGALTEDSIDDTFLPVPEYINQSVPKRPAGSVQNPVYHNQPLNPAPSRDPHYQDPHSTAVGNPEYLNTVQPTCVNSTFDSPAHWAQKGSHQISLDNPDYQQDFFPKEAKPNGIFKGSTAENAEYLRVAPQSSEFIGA
ALK, sequence (Q9UM73 19-1620): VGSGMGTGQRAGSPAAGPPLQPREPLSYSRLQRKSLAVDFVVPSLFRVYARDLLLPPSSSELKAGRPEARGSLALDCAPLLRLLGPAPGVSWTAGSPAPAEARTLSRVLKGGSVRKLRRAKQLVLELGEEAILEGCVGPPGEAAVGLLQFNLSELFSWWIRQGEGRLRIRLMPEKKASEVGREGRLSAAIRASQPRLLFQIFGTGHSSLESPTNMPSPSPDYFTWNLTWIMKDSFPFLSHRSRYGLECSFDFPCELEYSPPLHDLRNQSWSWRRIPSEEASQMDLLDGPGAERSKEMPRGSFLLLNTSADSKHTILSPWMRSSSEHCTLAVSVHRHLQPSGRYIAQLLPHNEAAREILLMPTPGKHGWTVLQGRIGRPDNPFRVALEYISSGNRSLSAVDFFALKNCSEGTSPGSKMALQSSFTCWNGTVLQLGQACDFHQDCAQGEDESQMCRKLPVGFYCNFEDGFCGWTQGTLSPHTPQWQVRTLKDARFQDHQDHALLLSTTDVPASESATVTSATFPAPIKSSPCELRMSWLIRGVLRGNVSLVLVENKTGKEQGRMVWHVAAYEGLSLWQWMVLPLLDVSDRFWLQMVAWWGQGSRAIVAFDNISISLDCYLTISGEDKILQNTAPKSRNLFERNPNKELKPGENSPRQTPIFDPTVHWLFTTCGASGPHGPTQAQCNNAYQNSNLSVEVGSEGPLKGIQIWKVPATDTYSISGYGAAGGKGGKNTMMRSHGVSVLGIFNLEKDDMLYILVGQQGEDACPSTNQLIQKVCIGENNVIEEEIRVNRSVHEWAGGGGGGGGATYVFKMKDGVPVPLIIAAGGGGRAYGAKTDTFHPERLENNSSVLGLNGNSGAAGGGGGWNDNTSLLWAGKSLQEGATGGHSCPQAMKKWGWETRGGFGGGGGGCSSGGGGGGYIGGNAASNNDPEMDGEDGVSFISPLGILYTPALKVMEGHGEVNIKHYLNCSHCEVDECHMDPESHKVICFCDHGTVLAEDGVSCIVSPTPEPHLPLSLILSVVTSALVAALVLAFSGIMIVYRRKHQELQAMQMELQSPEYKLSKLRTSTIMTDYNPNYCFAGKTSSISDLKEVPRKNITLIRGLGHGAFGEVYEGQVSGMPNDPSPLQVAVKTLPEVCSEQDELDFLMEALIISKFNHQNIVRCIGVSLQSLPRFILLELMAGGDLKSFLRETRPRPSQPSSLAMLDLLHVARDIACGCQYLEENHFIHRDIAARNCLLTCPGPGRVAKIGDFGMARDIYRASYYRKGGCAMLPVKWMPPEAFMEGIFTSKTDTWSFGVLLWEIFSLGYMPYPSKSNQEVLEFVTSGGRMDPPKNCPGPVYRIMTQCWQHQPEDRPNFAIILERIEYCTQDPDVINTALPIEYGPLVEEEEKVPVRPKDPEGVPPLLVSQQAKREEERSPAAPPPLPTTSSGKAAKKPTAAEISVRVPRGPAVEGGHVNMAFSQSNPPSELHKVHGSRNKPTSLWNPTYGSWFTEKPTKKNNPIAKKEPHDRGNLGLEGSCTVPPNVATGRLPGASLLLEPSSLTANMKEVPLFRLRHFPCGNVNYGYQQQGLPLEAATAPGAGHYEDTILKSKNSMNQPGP

CC(C)Oc1nn(CCO)c2c1/C=C/c1n[nH]c3ccc(cc13)-c1cnn(C)c1O[C@@H](C(F)F)CN(C)C2 (single isomer, unassigned) [Ex. 275]
IC50 (ALK): 1.46 nM
IC50 (CLK1): 0.8 nM
IC50 (CLK2): 1.03 nM
IC50 (CLK3): 241 nM
IC50 (CLK4): 2.25 nM

Cc1nn(C)c2c1/C=C/c1n[nH]c3ccc(cc13)-c1cnn(C)c1O[C@@H](C)CCO2 [Ex. 35, (10S,17E)-8,10,14,16-tetramethyl-2,11,12,14-tetrahydro-8H,10H-3,5-etheno[1,5]dioxacyclopentadecino[10,11-c:15,14-c′:6,7-c″ ]tripyrazole]
IC50 (EGFR WT): 584 nM
IC50 (EGFR (D770_N771insNPG)): 1040 nM
IC50 (EGFR Δ746-750 mutant): 101 nM
IC50 [1]: 99.6 nM
IC50 (EGFR L858R mutant): 135 nM
IC50 [2]: 30.9 nM
IC50 (ALK): 6.93 nM

CCc1nn(C)c2c1/C=C/c1n[nH]c3ccc(cc13)-c1cnn(C)c1OCCOC2 [Example 300, (17E)-16-ethyl-8,14-dimethyl-2,8,10,11,13,14-hexahydro-3,5-etheno[1,4]dioxacyclopentadecino[10,11-c:15,14-c′:6,7-c″]tripyrazole]
IC50 (ALK): 5.79 nM
IC50 (CLK1): 0.332 nM
IC50 (CLK2): 36.5 nM
IC50 (CLK3): 0.862 nM
IC50 (CLK4): 0.225 nM

CCN1Cc2c(c(OC(C)C)nn2C[C@H](C)O)/C=C/c2n[nH]c3ccc(cc23)-c2cnn(C)c2O[C@@H](C)C1 [Ex. 280, (2S)-1-{(10S,17E)-12-ethyl-8,10-dimethyl-16-[(propan-2-yl)oxy]-2,8,10,11,12,13-hexahydro-14H-3,5-ethenotripyrazolo[3,4-f:3′,4′-j:4″,3″-n][1,4]oxazacyclopentadecin-14-yl}propan-2-ol]
IC50 (ALK): 1.08 nM
IC50 (CLK1): 0.52 nM
IC50 (CLK2): 0.24 nM
IC50 (CLK3): 242 nM
IC50 (CLK4): 1.96 nM

CCOc1nn(CCO)c2c1/C=C/c1n[nH]c3cc(F)c(cc13)-c1cnn(C)c1O[C@H](C)CN(CC)C2 [Ex. 277, 2-[(10R,17E)-16-ethoxy-12-ethyl-19-fluoro-8,10-dimethyl-2,8,10,11,12,13-hexahydro-14H-3,5-ethenotripyrazolo[3,4-f:3′,4′-j:4″,3″-n][1,4]oxazacyclopentadecin-14-yl]ethan-1-ol]
IC50 (ALK): 9.87 nM
IC50 (CLK1): 4.28 nM
IC50 (CLK2): 2.99 nM
IC50 (CLK3): 51.1 nM
IC50 (CLK4): 2.77 nM

Cc1nn(C)c2c1/C=C/c1n[nH]c3ccc(cc13)-c1cnn(C)c1OCCCO2 [Ex. 8, (17E)-8,14,16-trimethyl-2,11,12,14-tetrahydro-8H,10H-3,5-etheno[1,5]dioxacyclopentadecino[10,11-c:15,14-c′:6,7-c″]tripyrazole]
IC50 (EGFR WT): 884 nM
IC50 (EGFR (D770_N771insNPG)): 377 nM
IC50 (EGFR Δ746-750 mutant): 44.8 nM
IC50 (EGFR L858R mutant): 104 nM
IC50 [2]: 24.3 nM
IC50 (ALK): 2.09 nM

Cc1onc2c1/C=C/c1n[nH]c3ccc(cc13)-c1cnn(C)c1OCCOC2 [Example 320, (17E)-8,16-dimethyl-2,8,10,11-tetrahydro-13H-3,5-ethenodipyrazolo[3′,4′:10,11;4″,3″:14,15] [1,4]dioxacyclopentadecino[6,7-c][1,2]oxazole]
IC50 (ALK): 32.2 nM
IC50 (CLK1): 0.324 nM
IC50 (CLK2): 69.7 nM
IC50 (CLK3): 0.2 nM
IC50 (CLK4): 0.155 nM

CC(C)Oc1nn(CCO)c2c1/C=C/c1n[nH]c3cc(F)c(cc13)-c1cnn(C)c1O[C@@H](C)[C@H]1CCCN1C2 (single isomer, unassigned) [Example 256]
IC50 (ALK): 2 nM
IC50 (CLK1): 1.38 nM
IC50 (CLK2): 1.35 nM
IC50 (CLK3): 94.5 nM
IC50 (CLK4): 4.05 nM

CCN1Cc2c(c(OC)nn2[C@@H](C)CO)/C=C/c2n[nH]c3cc(F)c(cc23)-c2cnn(C)c2O[C@H](C)C1 [Example 289, (2S)-2-[(10R,17E)-12-ethyl-19-fluoro-16-methoxy-8,10-dimethyl-2,8,10,11,12,13-hexahydro-14H-3,5-ethenotripyrazolo[3,4-f:3′,4′-j:4″,3″-n][1,4]oxazacyclopentadecin-14-yl]propan-1-ol]
IC50 (ALK): 15.4 nM

Cn1nc(C#N)c2c1COCCOc1c(cnn1C)-c1ccc3[nH]nc(c3c1)/C=C/2 [Example 302, (17E)-8,14-dimethyl-2,8,10,11,13,14-hexahydro-3,5-etheno[1,4]dioxacyclopentadecino[10,11-c:15,14-c′:6,7-c″]tripyrazole-16-carbonitrile]
IC50 (ALK): 19.9 nM
IC50 (CLK1): 1.19 nM
IC50 (CLK2): 1000 nM
IC50 (CLK3): 1.23 nM
IC50 (CLK4): 1.33 nM

CCOc1nn(CCO)c2c1/C=C/c1n[nH]c3cc(F)c(cc13)-c1cnn(C)c1O[C@@H](C)CN(CC)C2 [Example 288, 2-[(10S,17E)-16-ethoxy-12-ethyl-19-fluoro-8,10-dimethyl-2,8,10,11,12,13-hexahydro-14H-3,5-ethenotripyrazolo[3,4-f:3′,4′-j:4″,3″- n][1,4]oxazacyclopentadecin-14-yl]ethan-1-ol]
IC50 (ALK): 1.82 nM
IC50 (CLK1): 0.32 nM
IC50 (CLK2): 0.24 nM
IC50 (CLK3): 131 nM
IC50 (CLK4): 1.31 nM

Cc1nn(C)c2c1/C=C/c1n[nH]c3ccc(cc13)-c1cnn(C)c1OCCOC2 [Example 303, (17E)-8,14,16-trimethyl-2,8,10,11,13,14-hexahydro-3,5-etheno[1,4]dioxacyclopentadecino[10,11-c:15,14-c′:6,7-c″]tripyrazole]
IC50 (ALK): 27.5 nM

CCNC(=O)Cn1nc(C)c2c1COCCOc1c(cnn1C)-c1ccc3[nH]nc(c3c1)/C=C/2 [Example 301, 2-[(17E)-8,16-dimethyl-2,10,11,13-tetrahydro-3,5-etheno[1,4]dioxacyclopentadecino[10,11-c:15,14-c′:6,7-c′]tripyrazol-14(8H)-yl]-N-ethylacetamide]
IC50 (ALK): 29 nM

Cc1noc2c1/C=C/c1n[nH]c3ccc(cc13)-c1cnn(C)c1OCCOC2 [Example 321, (17E)-8,16-dimethyl-2,10,11,13-tetrahydro-8H-3,5-ethenodipyrazolo[3′,4′:10,11;4″,3″:14,15] [1,4]dioxacyclopentadecino[7,6-d][1,2]oxazole]
IC50 (ALK): 20.8 nM
IC50 (CLK1): 1.35 nM
IC50 (CLK2): 418 nM
IC50 (CLK3): 1.92 nM
IC50 (CLK4): 0.847 nM

Cc1nn(CCO)c2c1/C=C/c1n[nH]c3ccc(cc13)-c1cnn(C)c1OCCCO2 [Ex. 22, 2-[(17E)-8,16-dimethyl-2,8,11,12-tetrahydro-10H,14H-3,5-etheno[1,5]dioxacyclopentadecino[10,11-c:15,14-c′:6,7-c″]tripyrazol-14-yl]ethan-1-ol]
IC50 (EGFR WT): 158 nM
IC50 (EGFR (D770_N771insNPG)): 94.8 nM
IC50 (EGFR Δ746-750 mutant): 3.84 nM
IC50 [1]: 5.1 nM
IC50 (EGFR L858R mutant): 4.49 nM
IC50 (EGFR L858R/T790M mutant): 1.87 nM
IC50 [2]: 0.54 nM
IC50 (ALK): 1.35 nM

CCc1nn(C)c2c1/C=C/c1n[nH]c3ccc(cc13)-c1cnn(C)c1O[C@@H](C)COC2 [Example 319, (10S,17E)-16-ethyl-8,10,14-trimethyl-2,8,10,11,13,14-hexahydro-3,5-etheno[1,4]dioxacyclopentadecino[10,11-c:15,14-c′:6,7-c″]tripyrazole]
IC50 (EGFR WT): 766 nM
IC50 (EGFR (D770_N771insNPG)): 1490 nM
IC50 (EGFR Δ746-750 mutant): 218 nM
IC50 [1]: 425 nM
IC50 (EGFR L858R mutant): 182 nM
IC50 (EGFR L858R/T790M mutant): 24.7 nM
IC50 [2]: 60.5 nM
IC50 (ALK): 5.05 nM

Cc1snc2c1/C=C/c1n[nH]c3ccc(cc13)-c1cnn(C)c1OCCOC2 [Example 322, (17E)-8,16-dimethyl-2,8,10,11-tetrahydro-13H-3,5-ethenodipyrazolo[3′,4′:10,11;4″,3″:14,15] [1,4]dioxacyclopentadecino[6,7-c][1,2]thiazole]
IC50 (ALK): 59.9 nM
IC50 (CLK1): 1.04 nM
IC50 (CLK2): 34.9 nM
IC50 (CLK3): 0.322 nM
IC50 (CLK4): 0.636 nM
